From ChEMBL document CHEMBL5584240, “Evaluation of potency and metabolic stability of diphyllin-derived Vacuolar-ATPase inhibitors” (Eur J Med Chem, 2024)
The source made the active and inactive calls. The rule behind the calls is not given here.

How the values were obtained:
[1] = tested on: Ebolavirus; assay: Antiviral activity against recombinant Ebola virus Mayinga expressing GFP infected in human HeLa cells with ATP6V0a2 KO assessed as reduction in viral entry into cells pretreated for 1 hr followed by viral infection measured after 24 to 48 hrs by imaging analysis; type: functional, organism-based; conditions: Orthoebolavirus
[2] = Selectivity index, ratio of CC50 for HEK293 cells to EC50 for recombinant Ebola virus Mayinga expressing GFP infected in human HeLa cells with ATP6V0a2 KO; type: toxicity, cell-based; conditions: read-out: Ratio CC50/EC50
[3] = tested on: HEK293; assay: Cytotoxicity against HEK293 cells incubated for 72 hrs by MTT assay; type: toxicity, cell-based; conditions: human, hek293, 72 h
[4] = molecular target: Voltage-gated inwardly rectifying potassium channel KCNH2 (Homo sapiens, UniProt Q12809); assay: Inhibition of hERG at 10 uM relative to control; type: toxicity
[5] = tested on: A549; assay: Induction of phospholipidosis in NBD-PE-treated human A549 cells at 1 uM incubated for 24 hrs by imaging based analysis; type: functional, cell-based
[6] = tested on: Ebolavirus; assay: Antiviral activity against recombinant Ebola virus Mayinga expressing GFP infected in human primary macrophages assessed as reduction in infectivity pretreated for 1 hr followed by viral infection measured after 24 to 48 hrs by imaging analysis; type: functional, organism-based; conditions: Orthoebolavirus, Primary macrophage
[7] = Selectivity index, ratio of CC50 for human primary macrophages to EC50 for recombinant Ebola virus Mayinga expressing GFP infected in human primary macrophages; type: toxicity; conditions: read-out: Ratio CC50/EC50
[8] = Tmax in CD-1 mouse at 50 mg/kg, po by LC-MS/MS analysis; type: ADME, organism-based; conditions: in vivo
[9] = Cmax in CD-1 mouse at 50 mg/kg, po by LC-MS/MS analysis; type: ADME, organism-based; conditions: in vivo
[10] = tested on: A549; assay: Induction of phospholipidosis in NBD-PE-treated human A549 cells at 5 to 10 uM incubated for 24 hrs by imaging based analysis; type: functional, cell-based; conditions: dose 5-10 µM
[11] = Half life in CD-1 mouse at 50 mg/kg, po by LC-MS/MS analysis; type: ADME, organism-based; conditions: in vivo
[12] = AUC (0.25 to 24 hrs) in CD-1 mouse at 50 mg/kg, po by LC-MS/MS analysis; type: ADME, organism-based; conditions: in vivo
[13] = AUC (infinity) in CD-1 mouse at 50 mg/kg, po by LC-MS/MS analysis; type: ADME, organism-based; conditions: in vivo
[14] = Apparent volume of distribution during terminal phase in CD-1 mouse at 50 mg/kg, po by LC-MS/MS analysis; type: ADME, organism-based; conditions: in vivo, read-out: Vz/F
[15] = Apparent oral clearance in CD-1 mouse at 50 mg/kg, po by LC-MS/MS analysis; type: ADME, organism-based; conditions: in vivo
[16] = MRT in CD-1 mouse at 50 mg/kg, po by LC-MS/MS analysis; type: ADME, organism-based; conditions: in vivo

Chain of Voltage-gated inwardly rectifying potassium channel KCNH2 (Q12809 whole entry): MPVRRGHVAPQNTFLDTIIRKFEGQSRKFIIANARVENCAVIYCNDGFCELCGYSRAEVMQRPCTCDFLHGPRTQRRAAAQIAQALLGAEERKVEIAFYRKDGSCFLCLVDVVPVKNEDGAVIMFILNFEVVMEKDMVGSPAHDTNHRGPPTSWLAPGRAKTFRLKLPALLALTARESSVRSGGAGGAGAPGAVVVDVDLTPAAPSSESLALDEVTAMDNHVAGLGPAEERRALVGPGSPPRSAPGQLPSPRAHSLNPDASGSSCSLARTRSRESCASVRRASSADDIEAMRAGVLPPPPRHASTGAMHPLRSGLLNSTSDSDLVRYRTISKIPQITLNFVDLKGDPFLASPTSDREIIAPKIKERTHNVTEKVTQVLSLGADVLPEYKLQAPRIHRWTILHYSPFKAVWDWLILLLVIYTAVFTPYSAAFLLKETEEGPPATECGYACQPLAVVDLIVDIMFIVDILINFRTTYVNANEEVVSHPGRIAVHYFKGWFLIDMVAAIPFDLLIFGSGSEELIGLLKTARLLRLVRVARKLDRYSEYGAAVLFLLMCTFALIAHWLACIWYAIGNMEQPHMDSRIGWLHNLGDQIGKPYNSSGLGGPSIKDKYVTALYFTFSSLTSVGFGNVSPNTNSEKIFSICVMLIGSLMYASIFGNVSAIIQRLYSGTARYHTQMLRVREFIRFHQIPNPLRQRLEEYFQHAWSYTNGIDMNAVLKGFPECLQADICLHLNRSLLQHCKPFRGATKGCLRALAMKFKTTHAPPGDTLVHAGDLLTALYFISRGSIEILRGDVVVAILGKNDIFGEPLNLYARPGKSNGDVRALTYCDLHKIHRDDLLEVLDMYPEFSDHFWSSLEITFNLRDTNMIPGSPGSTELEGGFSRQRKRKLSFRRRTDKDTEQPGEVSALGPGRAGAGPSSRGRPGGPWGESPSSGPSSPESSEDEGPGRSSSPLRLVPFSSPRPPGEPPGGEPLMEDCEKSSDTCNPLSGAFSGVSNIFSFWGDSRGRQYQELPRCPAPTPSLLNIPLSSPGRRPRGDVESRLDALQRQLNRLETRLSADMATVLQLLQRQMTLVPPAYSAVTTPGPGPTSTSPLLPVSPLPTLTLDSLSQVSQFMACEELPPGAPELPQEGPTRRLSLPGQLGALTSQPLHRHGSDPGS

Row | SMILES | EC50 [1] [nM] | selectivity ratio [2] | CC50 [3] [nM] | inhibition (INH) [4] [%] | other results
1 | COc1cc2c(OCCCN3CCN(C)C(=O)C3)c3c(c(-c4ccc5c(c4)OCO5)c2cc1OC)C(=O)OC3 | 74 | > 340 | > 80000 | 9 | Activity [5]: inactive; EC50 [6]: 167 nM; selectivity ratio [7]: > 150
2 | COC(=O)N1CCN(CC(O)COc2c3c(c(-c4ccc5c(c4)OCO5)c4cc(OC)c(OC)cc24)C(=O)OC3)CC1 (stereo unspecified) | 41 | > 740 | > 80000 | 23 | 
3 | COc1cc2c(OCCCN3CC4CCC(C3)N4C)c3c(c(-c4ccc5c(c4)OCO5)c2cc1OC)C(=O)OC3 | 10 | > 3400 | > 80000 | 100 | EC50 [6]: 10 nM; selectivity ratio [7]: 577
4 | COCCN1CCN(CC(O)COc2c3c(c(-c4ccc5c(c4)OCO5)c4cc(OC)c(OC)cc24)C(=O)OC3)CC1 (stereo unspecified) | 44 | > 580 |  | 51 | 
5 | COc1cc2c(OC3CCNC3)c3c(c(-c4ccc5c(c4)OCO5)c2cc1OC)C(=O)OC3 (stereo unspecified) | 86 | 300 | > 80000 | 97 | 
6 | COc1cc2c(OCCN3CCN(C)CC3)c3c(c(-c4ccc5c(c4)OCO5)c2cc1OC)C(=O)OC3 | 36 | 300 | > 80000 | 79 | EC50 [6]: 30 nM; selectivity ratio [7]: 170
7 | COc1cc2c(OCCCN3[C@@H]4CC[C@H]3COC4)c3c(c(-c4ccc5c(c4)OCO5)c2cc1OC)C(=O)OC3 | 143 | > 190 | > 80000 | 76 | 
8 | COc1cc2c(O[C@@H]3O[C@H](C)[C@@H](O)[C@H](O)[C@H]3O)c3c(c(-c4ccc5c(c4)OCO5)c2cc1OC)C(=O)OC3 [PATENTIFLORIN A] | 428 | > 59 | > 80000 | < 5 | EC50 [6]: 85 nM; selectivity ratio [7]: 295; Tmax [8]: 0.25 h; Cmax [9]: 101 nM
9 | COc1cc2c(OCCCN3CCN(C(C)=O)CC3)c3c(c(-c4ccc5c(c4)OCO5)c2cc1OC)C(=O)OC3 | 42 | > 590 | > 80000 | 11 | 
10 | COc1cc2c(OCC(O)CN3CC4CCC(C3)N4C)c3c(c(-c4ccc5c(c4)OCO5)c2cc1OC)C(=O)OC3 (stereo unspecified) | 7 | 2000 | > 80000 | 99 | 
11 | CO/C1=C\C(C)=C\[C@@H](C)[C@@H](O)[C@@H](C)C/C(C)=C/C=C/[C@H](OC)[C@@H]([C@@H](C)[C@@H](O)[C@H](C)[C@@]2(O)C[C@@H](O)[C@H](C)[C@@H](C(C)C)O2)OC1=O [BAFILOMYCIN A1] | 3 | 470 | 37000 |  | 
12 | COc1cc2c(OCCCN3CCS(=O)(=O)CC3)c3c(c(-c4ccc5c(c4)OCO5)c2cc1OC)C(=O)OC3 | 117 | > 240 | > 80000 | 21 | Activity [5]: inactive; EC50 [6]: 180 nM; selectivity ratio [7]: 138
13 | CCCCc1oc2ccccc2c1C(=O)c1cc(I)c(OCCN(CC)CC)c(I)c1 |  |  |  |  | Activity [10]: Active
14 | COc1cc2c(OCCCC#N)c3c(c(-c4ccc5c(c4)OCO5)c2cc1OC)C(=O)OC3 | 37 | 130 | > 80000 | 24 | t1/2 [11]: 6.4 h; Tmax [8]: 0.5 h; Cmax [9]: 3560 nM; AUC(0-t) [12]: 6.86 µM·h; AUC [13]: 7.191 µM·h; Vd/F [14]: 2.85 L; CL/F [15]: 5.18 mL/min; MRT [16]: 5.9 h
15 | COC(=O)N1CCN(CCCOc2c3c(c(-c4ccc5c(c4)OCO5)c4cc(OC)c(OC)cc24)C(=O)OC3)CC1 | 22 | > 110 | > 80000 | 30 | 
16 | COc1cc2c(OCCCN3CCN(S(C)(=O)=O)CC3)c3c(c(-c4ccc5c(c4)OCO5)c2cc1OC)C(=O)OC3 | 35 | > 550 | > 80000 | 16 | 
17 | COc1cc2c(OCC(O)CN3CCN(C)CC3)c3c(c(-c4ccc5c(c4)OCO5)c2cc1OC)C(=O)OC3 (stereo unspecified) | 54 | > 420 | > 80000 | 36 | EC50 [6]: 33 nM; selectivity ratio [7]: > 753
18 | COc1cc2c(OCC(O)CN3CCOCC3)c3c(c(-c4ccc5c(c4)OCO5)c2cc1OC)C(=O)OC3 (stereo unspecified) | 157 | > 160 | > 80000 | 16 | 

Row | SMILES | EC50 [1] [nM] | selectivity ratio [2] | CC50 [3] [nM] | inhibition (INH) [4] [%] | other results
19 | COc1cc2c(OCCCN3CCNC(=O)C3)c3c(c(-c4ccc5c(c4)OCO5)c2cc1OC)C(=O)OC3 | 441 |  | > 80000 | 5 | 
20 | COc1cc2c(OC3CCNCC3)c3c(c(-c4ccc5c(c4)OCO5)c2cc1OC)C(=O)OC3 | 32 | 510 | > 80000 | 80 | t1/2 [11]: 86.2 h; Tmax [8]: 2 h; Cmax [9]: 151 nM; AUC(0-t) [12]: 0.636 µM·h; AUC [13]: 2.532 µM·h; Vd/F [14]: 105 L; CL/F [15]: 14.1 mL/min; MRT [16]: 113 h
21 | COc1cc2c(OC3CCOC3)c3c(c(-c4ccc5c(c4)OCO5)c2cc1OC)C(=O)OC3 (stereo unspecified) | 40 | 87 | > 80000 | 30 | EC50 [6]: 107 nM; selectivity ratio [7]: 132; t1/2 [11]: 13.5 h; Tmax [8]: 0.5 h; Cmax [9]: 1250 nM; AUC(0-t) [12]: 12 µM·h; AUC [13]: 16.455 µM·h; Vd/F [14]: 2.63 L; CL/F [15]: 2.25 mL/min; MRT [16]: 18 h
22 | COc1cc2c(OC3COC3)c3c(c(-c4ccc5c(c4)OCO5)c2cc1OC)C(=O)OC3 | 318 | > 79 | 72000 | 15 | 
23 | COc1cc2c(OCCCN3CC4CC3CN4C)c3c(c(-c4ccc5c(c4)OCO5)c2cc1OC)C(=O)OC3 (stereo unspecified) | 116 | > 210 | > 80000 | 72 | 
24 | COc1cc2c(OC3CNC3)c3c(c(-c4ccc5c(c4)OCO5)c2cc1OC)C(=O)OC3 | 214 | > 150 | > 80000 | 89 | 
25 | COc1cc2c(OCCCN3[C@@H]4CC[C@H]3CN(C)C4)c3c(c(-c4ccc5c(c4)OCO5)c2cc1OC)C(=O)OC3 | 18 | > 940 | 71000 | 72 | EC50 [6]: 25 nM; selectivity ratio [7]: 313
26 | COc1cc2c(OC3CCOCC3)c3c(c(-c4ccc5c(c4)OCO5)c2cc1OC)C(=O)OC3 | 124 | 43 | > 80000 | 36 | 
27 | COc1cc2c(OCCCN3CCOCC3)c3c(c(-c4ccc5c(c4)OCO5)c2cc1OC)C(=O)OC3 | 95 | > 230 | > 80000 | 11 | 
28 | COc1cc2c(OCCCN3CC4CCC(C3)O4)c3c(c(-c4ccc5c(c4)OCO5)c2cc1OC)C(=O)OC3 | 127 | > 190 | > 80000 | 22 | 
29 | COc1cc2c(OCCCN3CCN(C=O)CC3)c3c(c(-c4ccc5c(c4)OCO5)c2cc1OC)C(=O)OC3 | 31 | > 610 | > 80000 | 34 | 
30 | COc1cc2c(OCCCN3CC4CCC3CN4C)c3c(c(-c4ccc5c(c4)OCO5)c2cc1OC)C(=O)OC3 (stereo unspecified) | 26 | > 1020 | 54000 | 90 | EC50 [6]: 2 nM; selectivity ratio [7]: 3240
31 | COc1cc2c(OCCCN3CCN(C)CC3)c3c(c(-c4ccc5c(c4)OCO5)c2cc1OC)C(=O)OC3 | 7 | > 630 | 12000 | 75 | 
32 | COc1cc2c(OCCCN3CC4CCC3CO4)c3c(c(-c4ccc5c(c4)OCO5)c2cc1OC)C(=O)OC3 (stereo unspecified) | 28 | > 1200 | 80000 | 54 | EC50 [6]: 19 nM; selectivity ratio [7]: 319
33 | COc1cc2c(OCC#N)c3c(c(-c4ccc5c(c4)OCO5)c2cc1OC)C(=O)OC3 | 182 | > 140 | > 80000 | 6 | 
34 | COc1cc2c(OCCN3CCOCC3)c3c(c(-c4ccc5c(c4)OCO5)c2cc1OC)C(=O)OC3 | 651 | > 38 | > 80000 |  | 
35 | COc1cc2c(OCCCN3CC4CC3CO4)c3c(c(-c4ccc5c(c4)OCO5)c2cc1OC)C(=O)OC3 (stereo unspecified) | 48 | > 660 | 52000 | 73 | 
